In ChEMBL document CHEMBL3885861, “Open TG-GATES”:

Organism: Rattus norvegicus
Test: Open TG-GATES - Regimen: Single
Type: toxicity, organism-based, Sprague-Dawley
Parameters: regimen Single, gender Male, age 6 weeks
Conditions: in vivo, iv, route intravenous injection; for Ca / Cl / DBIL / GLC / IP / K / LDH / Na / PL / RALB / TBIL / TC / TG / TP / gamma-GTP / A/G / ALP / ALT / AST / BUN / CRE: tissue Plasma; for APTT / Fbg / Hb / Ht / MCH / MCHC / MCV / PT / Plat / RBC / Ret / WBC: tissue Blood; for KIDNEY_L / KIDNEY_R / KIDNEY_TOTAL: tissue Kidney; for LIVER: tissue Liver
[1] = 3 mg/kg, 24 h, dose level Middle

## C[C@@H]1C[C@@H]([C@H](O)CC2CC(=O)NC(=O)C2)C(=O)[C@@H](C)C1 [CYCLOHEXIMIDE]
[1]
  Ca: 9.8 mg/dL
  Cl: 107.6 meq/L
  DBIL: 0.004 mg/dL
  GLC: 177 mg/dL
  IP: 7.3 mg/dL
  K: 4.4 meq/L
  LDH: 231 IU/L
  Na: 138.8 meq/L
  PL: 74 mg/dL
  RALB: 2.4 g/dL
  TBIL: 0.028 mg/dL
  TC: 38.4 mg/dL
  TG: 80 mg/dL
  TP: 4.2 g/dL
  gamma-GTP: 1.6 IU/L
10 mg/kg, 3 h, dose level High
  TERMINAL_BW: 216.7 g
  APTT: 24.3 s
  Fbg: 301 mg/dL
  Hb: 15.2 g/dL
  Ht: 47.2%
  MCH: 21 pg
  MCHC: 32.3%
  MCV: 65.2 fL
  PT: 18.5 s
  Plat: 133.4 x10_4/uL
  RBC: 726.4 x10_4/ul
  Ret: 9.6%
  WBC: 375 x10_2/uL
  KIDNEY_L: 1 g
  KIDNEY_R: 1 g
  KIDNEY_TOTAL: 2 g
  LIVER: 9.2 g
  A/G: 1.3
  ALP: 1467 IU/L
  ALT: 74 IU/L
  AST: 314.6 IU/L
  BUN: 41.4 mg/dL
  CRE: 0.1 mg/dL
  Ca: 9.8 mg/dL
  Cl: 109 meq/L
  DBIL: 0.006 mg/dL
  GLC: 334.2 mg/dL
  IP: 13.4 mg/dL
  K: 5.1 meq/L
  LDH: 1625.2 IU/L
  Na: 140 meq/L
  PL: 82.4 mg/dL
  RALB: 3 g/dL
  TBIL: 0.014 mg/dL
  TC: 63.8 mg/dL
  TG: 20 mg/dL
  TP: 5.3 g/dL
  gamma-GTP: 3.2 IU/L
10 mg/kg, 6 h, dose level High
  TERMINAL_BW: 213.8 g
  APTT: 31.7 s
  Fbg: 270.2 mg/dL
  Hb: 17.7 g/dL
  Ht: 54.8%
  MCH: 21.6 pg
  MCHC: 32.3%
  MCV: 66.8 fL
  PT: 29.8 s
  Plat: 131.6 x10_4/uL
  RBC: 818.8 x10_4/ul
  Ret: 8.7%
  WBC: 396.9 x10_2/uL
  KIDNEY_L: 1 g
  KIDNEY_R: 1 g
  KIDNEY_TOTAL: 2 g
  LIVER: 7.9 g
  A/G: 1.1
  ALP: 1518.4 IU/L
  ALT: 76.2 IU/L
  AST: 315.8 IU/L
  BUN: 69.4 mg/dL
  CRE: 0.2 mg/dL
  Ca: 7.2 mg/dL
  Cl: 108.8 meq/L
  DBIL: 0.002 mg/dL
  GLC: 250.6 mg/dL
  IP: 16.5 mg/dL
  K: 6 meq/L
  LDH: 1124 IU/L
